In patent US6872729B2, “Pyrimidinylbenzimidazole and triazinylbenzimidazole derivatives and agricultural/horticultural fungicides” (Kumiai Chemical Industry Co., Ltd., priority 1998, dated 2005):

Tests used:
Erysiphe graminis = assay: Test for preventive effect on wheat powdery mildew; type: in vivo; conditions: wheat (Norin-61-go) seedlings, 500 ppm active ingredient, preventive treatment; diseased area of first leaves 10 days after inoculation with Erysiphe graminis
Method in brief: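 Wheat seedlings (Norin-61-go), grown 8 days, were sprayed with wettable-powder solutions at 500 ppm active ingredient, air-dried, then inoculated by sprinkling Erysiphe graminis spores. Plants were kept at 20-25° C. Diseased area on first leaves was scored 10 days post-inoculation against a rating standard.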

SMILES	melting point [°C]	Biological effectiveness (Erysiphe graminis)
COc1cc(OC)nc(-n2c(SC)nc3ccccc32)n1 [Compound I-4, 1-(4,6-dimethoxypyrimidin-2-yl)-2-methylthiobenzimidazole]	135 to 137	
COc1cc(OC)nc(-n2c(S(C)(=O)=O)nc3ccccc32)n1 [Compound I-5, 1-(4,6-dimethoxypyrimidin-2-yl)-2-methylsulfonylbenzimidazole]	114 to 117	
COc1cc(OC)nc(-n2c(OC)nc3ccccc32)n1 [Compound I-18, 1-(4,6-dimethoxypyrimidin-2-yl)-2-methoxybenzimidazole]	121 to 122	
COc1cc(OC)nc(-n2c(C)nc3cc(C)ccc32)n1 [Compound I-186, 1-(4,6-dimethoxypyrimidin-2-yl)-2,5-dimethylbenzimidazole]	163 to 166	A (No diseased area)
COc1nc(OC)nc(-n2c(C)nc3cc(Cl)ccc32)n1 [Compound I-215, 5-chloro-1-(4,6-dimethoxy-[1,3,5]triazin-2-yl)-2-methylbenzimidazole]	173 to 176	A (No diseased area)
COc1cc(OC)nc(-n2c(Cl)nc3cc(C)ccc32)n1 [Compound I-258, 2-chloro-1-(4,6-dimethoxypyrimidin-2-yl)-5-methylbenzimidazole]	145 to 148	A (No diseased area)
COc1nc(OC)nc(-n2c(Cl)nc3cc(Cl)ccc32)n1 [Compound I-277, 2,5-dichloro-1-(4,6-dimethoxy-[1,3,5]triazin-2-yl)benzimidazole]	146 to 149	B (Diseased area of less than 25%)
COc1cc(OC)nc(-n2c(C(F)(F)F)nc3cc(C)ccc32)n1 [Compound I-298, 1-(4,6-dimethoxypyrimidin-2-yl)-5-methyl-2-trifluoromethylbenzimidazole]	93 to 96	A (No diseased area)
COc1nc(OC)nc(-n2c(C(F)(F)F)nc3cc(C)ccc32)n1 [Compound I-312, 1-(4,6-dimethoxy-[1,3,5]triazin-2-yl)-5-methyl-2-trifluoromethylbenzimidazole]	137 to 140	A (No diseased area)
COc1cc(OC)nc(-n2c(N)nc3cc(C)ccc32)n1 [Compound I-362, 2-amino-1-(4,6-dimethoxypyrimidin-2-yl)-5-methylbenzimidazole]	> 300	A (No diseased area)
COc1nc(OC)nc(-n2c(N)nc3cc(Cl)ccc32)n1 [Compound I-368, 2-amino-5-chloro-1-(4,6-dimethoxy-[1,3,5]triazin-2-yl)benzimidazole]	293 to 296	B (Diseased area of less than 25%)
COc1ccnc(-n2cnc3ccccc32)n1 [Compound I-667, 1-(4-methoxypyrimidin-2-yl)-benzimidazole]	114 to 116	B (Diseased area of less than 25%)
CCCc1nc(OC)nc(-n2c(C)nc3cc(C)ccc32)n1 [Compound I-999]		A (No diseased area)
CCCc1nc(OC)nc(-n2c(C(F)(F)F)nc3cc(C)ccc32)n1 [Compound I-1004]		A (No diseased area)
COc1nc(C2CC2)nc(-n2c(C)nc3cc(C)ccc32)n1 [Compound I-1019]		A (No diseased area)
COc1nc(C2CC2)nc(-n2c(C(F)(F)F)nc3cc(C)ccc32)n1 [Compound I-1022]		A (No diseased area)
CSc1nc(SC)nc(-n2c(C)nc3ccccc32)n1 [Compound I-1042, 1-(4,6-dimethylthio-[1,3,5]triazin-2-yl)-2-methylbenzimidazole]	176 to 179	
CSc1nc(SC)nc(-n2c(C)nc3cc(Cl)ccc32)n1 [Compound I-1043]		A (No diseased area)
CSc1nc(SC)nc(-n2c(C(F)(F)F)nc3cc(Cl)ccc32)n1 [Compound I-1046]		A (No diseased area)
CSc1nc(C)nc(-n2c(C(F)(F)F)nc3cc(C)ccc32)n1 [Compound I-1048]		A (No diseased area)
COc1nc(-c2ccccc2)nc(-n2c(C)nc3cc(C)ccc32)n1 [Compound I-1058]		A (No diseased area)

SMILES	melting point [°C]	Biological effectiveness (Erysiphe graminis)
COc1nc(-c2ccccc2)nc(-n2c(C(F)(F)F)nc3ccc(C)cc32)n1 [Compound I-1059]		A (No diseased area)
Cc1nc2cc(Cl)c(Cl)cc2n1-c1nc(Cl)cc(Cl)n1 [Compound I-1064]		B (Diseased area of less than 25%)
Cc1nc2ccccc2n1-c1nc(Cl)nc(Cl)n1 [Compound I-1066, 1-(4,6-dichloro-[1,3,5]triazin-2-yl)-2-methylbenzimidazole]	> 300	
Cc1nc2cc(Cl)ccc2n1-c1nc(N(C)C)nc(N(C)C)n1 [Compound I-1071]		A (No diseased area)
Cc1cc(C)nc(-n2cnc3ccccc32)n1 [Compound I-1079]		B (Diseased area of less than 25%)
Cc1cc(C(F)(F)F)nc(-n2cnc3ccccc32)n1 [Compound I-1082]		B (Diseased area of less than 25%)
CCc1cc(C)nc(-n2cnc3ccccc32)n1 [Compound I-1085]		A (No diseased area)
CCc1cc(C)nc(-n2cnc3cc(C)ccc32)n1 [Compound I-1086]		B (Diseased area of less than 25%)
CCc1cc(C)nc(-n2c(C)nc3cc(C)ccc32)n1 [Compound I-1087]		A (No diseased area)
CCc1cc(C)nc(-n2c(C)nc3cc(Cl)ccc32)n1 [Compound I-1088]		A (No diseased area)
CCc1cc(C)nc(-n2c(C)nc3ccc(Cl)cc32)n1 [Compound I-1090]		B (Diseased area of less than 25%)
CCc1cc(CC)nc(-n2cnc3ccccc32)n1 [Compound I-1093]		A (No diseased area)
CCc1cc(CC)nc(-n2cnc3cc(C)ccc32)n1 [Compound I-1094]		A (No diseased area)
CCc1cc(CC)nc(-n2c(C)nc3cc(C)ccc32)n1 [Compound I-1095]		A (No diseased area)
CCc1cc(CC)nc(-n2c(C)nc3cc(Cl)ccc32)n1 [Compound I-1096]		A (No diseased area)
CCc1cc(CC)nc(-n2c(C)nc3ccc(Cl)cc32)n1 [Compound I-1098]		A (No diseased area)
Cc1ccc2c(c1)nc(C)n2-c1nc(C)cc(C2CC2)n1 [Compound I-1103]		B (Diseased area of less than 25%)
Cc1cc(C2CC2)nc(-n2c(C)nc3cc(Cl)ccc32)n1 [Compound I-1104]		B (Diseased area of less than 25%)
Cc1cc(C2CC2)nc(-n2c(C)nc3ccc(Cl)cc32)n1 [Compound I-1106]		B (Diseased area of less than 25%)
CC#Cc1cc(C)nc(-n2cnc3ccccc32)n1 [Compound I-1123]		B (Diseased area of less than 25%)
Cc1cc(C#N)nc(-n2c(C)nc3ccccc32)n1 [Compound I-1147]		B (Diseased area of less than 25%)
